Measured values from ChEMBL document CHEMBL5550121, “Expanding the ligand spaces for E3 ligases for the design of protein degraders” (Bioorg Med Chem, 2024).

Legend:
[1] = biological target: Polycomb protein EED (Homo sapiens, UniProt O75530); assay: Inhibition of EED (unknown origin) by ELISA based assay
[2] = Inhibition of p38 (unknown origin)

Polycomb protein EED, sequence (O75530 whole entry): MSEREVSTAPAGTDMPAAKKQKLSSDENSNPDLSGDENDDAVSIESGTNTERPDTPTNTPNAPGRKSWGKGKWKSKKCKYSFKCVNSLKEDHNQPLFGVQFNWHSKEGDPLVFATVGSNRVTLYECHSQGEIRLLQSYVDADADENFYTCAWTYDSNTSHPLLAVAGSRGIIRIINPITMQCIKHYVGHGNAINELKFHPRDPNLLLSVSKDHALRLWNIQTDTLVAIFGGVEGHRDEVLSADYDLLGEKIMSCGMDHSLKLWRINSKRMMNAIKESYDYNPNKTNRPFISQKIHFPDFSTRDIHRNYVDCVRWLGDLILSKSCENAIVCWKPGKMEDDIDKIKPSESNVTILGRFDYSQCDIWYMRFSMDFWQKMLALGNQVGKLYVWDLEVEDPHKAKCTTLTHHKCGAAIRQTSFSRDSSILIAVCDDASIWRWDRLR

| SMILES | IC50 [1] [µM] | IC50 [2] [µM] |
| --- | --- | --- |
| Cc1ncccc1-c1cnc(NCc2c(F)ccc3c2CCO3)n2cnnc12 | 0.026 |  |
| COc1cc2c(Oc3ccc(NC(=O)C4(C(=O)Nc5ccc(F)cc5)CC4)cc3F)ccnc2cc1OCCCN1CCOCC1 [FORETINIB] |  | 11 |
